Legend:
[1] = system: Tel22 (DNA, G4) AGGGTTAGGGTTAGGGTTAGGG; assay: ITC; details: 10 mM Tris, 1 mM EDTA, pH 7.4, 20 °C
[2] = system: F21T (DNA, G4) GGGTTAGGGTTAGGGTTAGGG; assay: FRET melting; details: 100 mM KCl; 10 mM lithium cacodylate pH 7.2; 1 µM TPE-Im, 200 nM F21T (5:1)
[3] = system: ds43 (DNA, duplex) CGTCACGTAAATCGGTTAACAAATGGCTTTCGAAGCTAGCTTC/GAAGCTAGCTTCGAAAGCCATTTGTTAACCGATTTACGTGACG; assay: FRET melting competition; details: 100 mM KCl; 10 mM lithium cacodylate pH 7.2; 10 equivalents ds43 lower F21T ΔT1/2 from 19.5 to 7 °C

For `C[n+]1ccn(-c2ccc(C(=C(c3ccc(-n4cc[n+](C)c4)cc3)c3ccc(-n4cc[n+](C)c4)cc3)c3ccc(-n4cc[n+](C)c4)cc3)cc2)c1`, the Ka ([1]; 100 mM KCl) was 2.4 (±1.0).10^5 M^-1, the Ka ([1]; 100 mM NaCl) was 3.2 (±1.1).10^5 M^-1 and the ΔT1/2 [2] was 19.5 °C. The binding [3] was “weak”.

From publication PMC6637260 (2019)
